The supplement of paper PMC5908809

Assays:
[1] = tested on: normal NK cells expanded with K562-aAPC; experiment: percent inhibition of viability; higher = more inhibition; conditions: 72 h, IL-2 2.5 ng/mL
Description: (§1)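 Drug sensitivity and resistance testing on K562-aAPC-expanded normal NK cells: 5 concentrations (10-fold steps over a 10,000-fold range), 72 h at 37 °C, viability by CellTiter-Glo normalised to DMSO and benzethonium chloride controls; DSS from the fitted curve.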

DERL-7 (IL-2 2.5 ng/mL) [2] = experiment: as above; conditions: 72 h
IMC-1 (IL-2 20 ng/mL) [3] = experiment: as above; conditions: 72 h
KAI3 (IL-2 2.5 ng/mL) [4] = experiment: as above; conditions: 72 h
KHYG-1 (IL-2 2.5 ng/mL) [5] = experiment: as above; conditions: 72 h
NK-92 (IL-2 2.5 ng/mL) [6] = experiment: as above; conditions: 72 h
NK-YS (IL-2 2.5 ng/mL) [7] = experiment: as above; conditions: 72 h
NKL (IL-2 2.5 ng/mL) [8] = experiment: as above; conditions: 72 h
SNK-6 (IL-2 2.5 ng/mL) [9] = experiment: as above; conditions: 72 h
YT (IL-2 2.5 ng/mL) [10] = experiment: as above; conditions: 72 h
[11] = tested on: normal primary NK cells, pool 1 (3 donors) (IL-2 2.5 ng/mL); experiment: as above; conditions: 72 h
[12] = tested on: normal primary NK cells, pool 1 (3 donors), resting (IL-2 0 ng/mL); experiment: as above; conditions: 72 h
[13] = tested on: normal primary NK cells, pool 2 (3 donors) (IL-2 2.5 ng/mL); experiment: as above; conditions: 72 h
[14] = tested on: normal primary NK cells, pool 3 (3 donors) (IL-2 2.5 ng/mL); experiment: as above; conditions: 72 h
[15] = tested on: normal NK cells expanded with K562-aAPC; experiment: drug sensitivity score (DSS) (DSS units); higher = more sensitive; extreme values may be limits of the assay; conditions: 72 h; IL-2 2.5 ng/mL
Description: as §1

DERL-7 (IL-2 2.5 ng/mL) [16] = experiment: as above; conditions: 72 h
IMC-1 (IL-2 20 ng/mL) [17] = experiment: as above; conditions: 72 h
KAI3 (IL-2 2.5 ng/mL) [18] = experiment: as above; conditions: 72 h
KHYG-1 (IL-2 2.5 ng/mL) [19] = experiment: as above; conditions: 72 h
NK-92 (IL-2 2.5 ng/mL) [20] = experiment: as above; conditions: 72 h
NK-YS (IL-2 2.5 ng/mL) [21] = experiment: as above; conditions: 72 h
NKL (IL-2 2.5 ng/mL) [22] = experiment: as above; conditions: 72 h
SNK-6 (IL-2 2.5 ng/mL) [23] = experiment: as above; conditions: 72 h
YT (IL-2 2.5 ng/mL) [24] = experiment: as above; conditions: 72 h
[25] = tested on: normal primary NK cells, pool 1 (3 donors) (IL-2 2.5 ng/mL); experiment: as above; conditions: 72 h
[26] = tested on: normal primary NK cells, pool 1 (3 donors), resting (IL-2 0 ng/mL); experiment: as above; conditions: 72 h
[27] = tested on: normal primary NK cells, pool 2 (3 donors) (IL-2 2.5 ng/mL); experiment: as above; conditions: 72 h
[28] = tested on: normal primary NK cells, pool 3 (3 donors) (IL-2 2.5 ng/mL); experiment: as above; conditions: 72 h

O=C(/C=C/c1cccnc1)NCCCCC1CCN(C(=O)c2ccccc2)CC1 [Daporinad] (max concentration tested 1000 nM)
percent inhibition of viability [%]
Conditions	0.1 nM	1 nM	10 nM	100 nM	1000 nM
DERL-7 (IL-2 2.5 ng/mL) [2]	-1.42	36.4	98.7	99.8	101
IMC-1 (IL-2 20 ng/mL) [3]	-4.3	-0.58	95.2	101	99.6
KAI3 (IL-2 2.5 ng/mL) [4]	0.04	4.42	89.6	104	107
KHYG-1 (IL-2 2.5 ng/mL) [5]	-4.62	0.47	102	108	110
NK-92 (IL-2 2.5 ng/mL) [6]	-12.4	-11	78.5	107	110
NK-YS (IL-2 2.5 ng/mL) [7]	-0.02	65.7	101	107	109
NKL (IL-2 2.5 ng/mL) [8]	-7.99	8.6	96.8	106	109
SNK-6 (IL-2 2.5 ng/mL) [9]	-2.25	67.5	98.8	101	101
YT (IL-2 2.5 ng/mL) [10]	-3.84	3.35	72	106	109
[1]	-5.42	-8.02	95.3	98.9	99.5
[11]	3.25	78.4	97.4	98.2	98.6
[12]	19.1	78.8	93.6	93.4	94.4
[13]	1.47	71.4	96.2	96.4	95.7
[14]	0.86	57.3	98.6	99.3	100

Conditions	drug sensitivity score
DERL-7 (IL-2 2.5 ng/mL) [16]	35.4
IMC-1 (IL-2 20 ng/mL) [17]	29.8
KAI3 (IL-2 2.5 ng/mL) [18]	29.3
KHYG-1 (IL-2 2.5 ng/mL) [19]	30.7
NK-92 (IL-2 2.5 ng/mL) [20]	26.9
NK-YS (IL-2 2.5 ng/mL) [21]	38.1
NKL (IL-2 2.5 ng/mL) [22]	31.6
SNK-6 (IL-2 2.5 ng/mL) [23]	38.3
YT (IL-2 2.5 ng/mL) [24]	26.6
[15]	29.2
[25]	39.6
[26]	40.4
[27]	37.9
[28]	37.3

CC[C@@H]1C(=O)OC[C@@H]1Cc1cncn1C [Pilocarpine] (max concentration tested 40000 nM)
percent inhibition of viability [%]
Conditions	4 nM	40 nM	400 nM	4000 nM	40000 nM
DERL-7 (IL-2 2.5 ng/mL) [2]	1.42	-1.75	0.14	2.27	-9.94
IMC-1 (IL-2 20 ng/mL) [3]	0.9	2.74	3.37	7.24	10.8
KAI3 (IL-2 2.5 ng/mL) [4]	-4.19	-2.59	-0.69	0.97	10.8
KHYG-1 (IL-2 2.5 ng/mL) [5]	-5.1	0.26	0.29	8.1	13.5
NK-92 (IL-2 2.5 ng/mL) [6]	-3.6	-6.46	-0.49	3.22	17.6
NK-YS (IL-2 2.5 ng/mL) [7]	-0.26	2	1.94	9.78	16
NKL (IL-2 2.5 ng/mL) [8]	0.76	-2.78	1.71	1.49	4.41
SNK-6 (IL-2 2.5 ng/mL) [9]	7.63	1.2	25.3	7.63	17.4
YT (IL-2 2.5 ng/mL) [10]	0.63	-1.77	4.55	7.37	12.4
[1]	-3.76	-0.92	0.04	4.29	9.84
[11]	-1.79	4.63	-1.46	6	3.9
[12]	2.62	11.3	-11.4	2.11	-5.32
[13]	-4.81	-4.05	-0.5	4.72	-5.35
[14]	-10.7	-14.3	-6.23	1.83	-3.82

Conditions	drug sensitivity score
DERL-7 (IL-2 2.5 ng/mL) [16]	0
IMC-1 (IL-2 20 ng/mL) [17]	0
KAI3 (IL-2 2.5 ng/mL) [18]	0.01
KHYG-1 (IL-2 2.5 ng/mL) [19]	0.51
NK-92 (IL-2 2.5 ng/mL) [20]	0.79
NK-YS (IL-2 2.5 ng/mL) [21]	0.76
NKL (IL-2 2.5 ng/mL) [22]	0
SNK-6 (IL-2 2.5 ng/mL) [23]	0
YT (IL-2 2.5 ng/mL) [24]	0.14
[15]	0
[25]	0
[26]	0
[27]	0
[28]	0
